Patent US9175045B2, “Peptidomimetic macrocycles” (Aileron Therapeutics, Inc., priority 2008, dated 2015)

What was measured:
[1] = system: Jurkat cell line; assay type: cell-based; conditions: 24 h
In short: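 Jurkat E6-1 cells in Opti-MEM, serum-free or with 2% or 10% human serum, were treated 24 h at 37° C. with crosslinked polypeptides: final 0.6-20 μM serum-free, 3.125-100 μM with serum. Viability measured by CellTiter-Glo luminescence; Triton X-100 and DMSO-only wells served as controls.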

[2] = biological target: human serum proteins; test: Apparent affinity to human serum proteins (Kd*) by EC50 shift analysis; assay type: in vitro ADME; conditions: nonlinear regression of EC50 shift with serum, n = 1, P = 700 μM for 100% serum
In short: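 Kd* fitted by nonlinear regression of EC50 shifts across increasing serum concentrations. Shift attributed entirely to HSA (P = 700 µM at 100% serum, 70 µM at 10%), with 1:1 binding stoichiometry fixed. Whole-blood EC′50 estimated with P = 700 µM.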

[3] = Estimated free fraction in blood, calculated from Kd* with [HSA]total 700 μM; assay type: in vitro ADME; conditions: human; [HSA]total set at 700 μM; read-out: Free Fraction est. in blood
Method: The free fraction in blood is estimated per the following equation, as derived by Trainor, Expert Opin. Drug Disc., 2007, 2(1):51-64, where [HSA]total is set at 700 μM. [formula]

Work on `CC[C@H](C)[C@H](NC(=O)[C@H](Cc1c[nH]c2ccccc12)NC(=O)[C@H](CCCNC(=N)N)NC(C)=O)C(=O)N[C@@H](C)C(=O)N[C@@H](CCC(N)=O)C(=O)N[C@@H](C)C(=O)N[C@@H](CC(C)C)C(=O)N[C@@H](CCCNC(=N)N)C(=O)NC1(C)CCCC=CCCCC(C)(C(=O)N[C@@H](Cc2ccccc2)C(=O)N[C@@H](CC(N)=O)C(=O)N[C@@H](C)C(=O)N[C@@H](Cc2ccc(O)cc2)C(=O)N[C@@H](Cc2ccc(O)cc2)C(=O)N[C@@H](C)C(=O)N[C@@H](CCCNC(=N)N)C(=O)N[C@@H](CCCNC(=N)N)C(N)=O)NC(=O)[C@H](CC(N)=O)NC(=O)CNC(=O)[C@H]([C@@H](C)CC)NC1=O` (stereo partly drawn) [Compound 15, Ac-RWIAQALR$1GN$FNAYYARR-NH2] yielded an EC50 [1] of 900 nM, a Kd [2] of 5100 nM and a fraction unbound [3] of 0.0084.
